Holding throughout (assay): inhibition of tumour cell growth, NCI panel, 48 h
Experiment [1] has as its system SF-295 CNS.
The test system of experiment [2] is UACC-257 melanoma.
The subject of experiment [3] is RXF 393 renal.
For experiment [4], the system named is OVCAR-8 ovarian.
The subject of experiment [5] is OVCAR-4 ovarian.
Experiment [6] has as its system COLO 205 colon.
Experiment [7] has as its system UO-31 renal.
The test system of experiment [8] is NCI/ADR-RES ovarian.
Experiment [9] relates to SK-MEL-28 melanoma.
Experiment [10] concerns A549 NSCLC.
For experiment [11], the system named is MDA-MB-435.
In experiment [12] the test system is NCI-H460 lung.
Experiment [13] deals with SK-OV-3 ovarian.
The test system of experiment [14] is MALME-3M melanoma.
In experiment [15] the test system is MOLT-4 leukemia.

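Each compound was tested at five concentrations against cells in 96-well plates for 48 hours. At the TGI there is no net growth.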 Where a SMILES comes first, the peptide text is derived from it. [ ]: non-standard residue; d: D form. The star is where a group is joined. ξ: configuration not given here. ξW = NC(Cc1c[nH]c2ccccc12)C(=O)O; X30 = O=C(O)[C@H]1CCC[C@H]1N*; ξF = NC(Cc1ccccc1)C(=O)O; Boc = CC(C)(C)OC(=O)*; ξK = NCCCCC(N)C(=O)O; ξT = CC(O)C(N)C(=O)O; tBu = CC(C)(C)*

This note sets out measurements from PubChem BioAssay (NCI).

Regarding `Cc1ccc(N=Nc2c(C)nn(C(=O)CC(=O)Nc3ccc(Cl)cc3)c2C)cc1C`, the TGI in experiment [1] is above 100 µM; in experiment [2] it was above 100 µM; in experiment [3], 67.2 µM; in experiment [4], above 100 µM; in experiment [5] it was above 100 µM; in experiment [6], above 100 µM. Moreover, the TGI in [7], in experiment [8], in [9], in experiment [10], in [11] and in experiment [12] was above 100 µM each time. Besides, the figures for the TGI in experiment [13], in experiment [14] and in experiment [15] were 51.2 µM, above 100 µM and 66 µM, respectively.

For `Cc1n(-c2ccccc2)c2c([n+]1Cc1ccc([N+](=O)[O-])cc1)C(=O)c1ccccc1C2=O`, the TGI worked out at 15.3 µM in experiment [1]; 3.16 µM in experiment [2]; 21.5 µM in [3]; 6.43 µM in experiment [4]; 3.2 µM in experiment [5]; 3.07 µM in experiment [6]. Also, the TGI was determined as 26.6 µM in [7]; 5.61 µM in [8]; 3.59 µM in experiment [9]; 10.7 µM in experiment [10]; 3.12 µM in experiment [11]; 12.4 µM in experiment [12]. In addition, the TGI in [13] amounted to 12.5 µM; in [14], 3.05 µM; in [15], 2.57 µM.

Take `Nc1nc(NCC2(CO)CC(CCc3ccccc3)C2)cc(=O)[nH]1` (stereo unspecified): the TGI in experiment [1], in [2], in [3], in experiment [4], in experiment [5] and in experiment [6] was above 100 µM throughout. The TGI in experiment [7] is 67.8 µM; in experiment [8], above 100 µM; in experiment [9] it was above 100 µM; in experiment [10], above 100 µM; in experiment [11], above 100 µM; in [12], above 100 µM. In addition, the TGI in experiment [13] was 80.6 µM; in [14], above 100 µM; in [15], above 100 µM.

`CC(OC(C)(C)C)C(NC(=O)C(CCCCNC(=O)OC(C)(C)C)NC(=O)C(Cc1c[nH]c2ccccc12)NC(=O)C(N)Cc1ccccc1)C(=O)NC(Cc1ccccc1)C(=O)N[C@@H]1CCC[C@@H]1C(=O)O` (stereo partly specified) (H-[ξF][ξW][ξK](Boc)[ξT](tBu)[ξF]-X30): the TGI is above 100 µM in experiment [1]; above 100 µM in experiment [2]; above 100 µM in experiment [3]; above 100 µM in experiment [4]; above 100 µM in experiment [5]; 76.2 µM in [6]. Moreover, the TGI in experiment [7], in [8], in experiment [9], in [10], in experiment [11] and in experiment [12] was above 100 µM throughout. In addition, the TGI in experiment [13], in experiment [14] and in experiment [15] was above 100 µM throughout.

Regarding `CN1CC(S(=O)(=O)c2ccccc2)CC(S(=O)(=O)c2ccccc2)C1c1ccccc1` (stereo unspecified), the TGI in experiment [1] is above 100 µM; in experiment [2], 41 µM; in experiment [3], 37.3 µM; in experiment [4], above 100 µM; in experiment [5], 34.5 µM; in experiment [6] it was 28 µM. Also, the TGI was 29.4 µM in [7]; above 100 µM in experiment [8]; 36.7 µM in experiment [9]; above 100 µM in experiment [10]; 28.3 µM in experiment [11]; 49.4 µM in [12]. For the same compound, the TGI in [13] was above 100 µM; in [14], 27.6 µM; in [15], above 100 µM.

For the compound `CCN(CC)c1nc(=O)c(C(=O)C(C)(C)C)c(C(C)(C)C)o1`, the TGI in experiment [1], in experiment [2], in experiment [3], in [4], in experiment [5] and in [6] was above 100 µM throughout. In addition, the TGI in experiment [8], in experiment [9], in experiment [10], in [11], in [12] and in experiment [13] was above 100 µM each time. Also, the TGI in [14] and in experiment [15] was above 100 µM throughout.

`Nc1ccc(-c2nc3ccccc3s2)cc1F`: the TGI was 94 µM in experiment [1]; above 100 µM in experiment [2]; above 100 µM in experiment [3]; above 100 µM in experiment [4]; above 100 µM in [5]; 48.3 µM in experiment [6]. For the same compound, the TGI in experiment [7], in experiment [8], in [9], in experiment [10], in [11] and in experiment [13] was above 100 µM throughout. In addition, the TGI in [14] is above 100 µM; in [15], 31.9 µM.

For `C=CCN(c1cc(OCc2ccccc2)c2c(c1)c(C)cn2S(=O)(=O)c1ccccc1)S(C)(=O)=O`, the TGI in [1], in experiment [2], in experiment [3], in experiment [4], in [5] and in experiment [6] was above 100 µM in each case. For the same compound, the TGI in experiment [8], in experiment [9], in [10], in [11], in [12] and in experiment [13] was above 100 µM in each case. Further, the TGI in experiment [14] and in [15] was above 100 µM throughout.

Take `COC(=O)c1c2c(cc3c1CC1(C3)Cc3ccc4c(c3C1=O)CCC4)CCC2` (stereo unspecified): the TGI in experiment [1] was above 28.8 µM; in experiment [2], above 100 µM; in [3], 3.14 µM; in experiment [4], above 82 µM; in experiment [5] it was above 92 µM; in experiment [7], above 44.6 µM. For the same compound, the TGI in [8] is above 22.5 µM; in [9] it was above 100 µM; in experiment [10] it was above 100 µM; in experiment [11] it was 3.22 µM; in experiment [12] it was above 100 µM; in experiment [13] it was above 77.4 µM. Further, the values for the TGI in experiment [14] and in [15] were above 45.5 µM and above 100 µM, respectively.
